Reference: paper PMC5488202

Experiment: Ring-closing metathesis (C=C formation) of fluorous-tagged (FDIPES) terminal dienes with Hoveyda-Grubbs 2nd generation catalyst (typically 2 mol%, 1-5 mol%), usually with 1,4-benzoquinone (4-10 mol%); quench P(CH2OH)3/Et3N/silica
Conditions: MTBE, 2.0 mM, 55.0 °C

## CC(C)[Si](CCC(F)(F)C(F)(F)C(F)(F)C(F)(F)C(F)(F)C(F)(F)C(F)(F)C(F)(F)F)(OC[C@H]1CC=CCCN(S(=O)(=O)C(F)(F)F)Cc2ccccc2CN1S(=O)(=O)c1ccccc1[N+](=O)[O-])C(C)C [26 (13+12; E/Z >98:<2)]
From C=CCCN(Cc1ccccc1CN([C@H](CC=C)CO[Si](CCC(F)(F)C(F)(F)C(F)(F)C(F)(F)C(F)(F)C(F)(F)C(F)(F)C(F)(F)F)(C(C)C)C(C)C)S(=O)(=O)c1ccccc1[N+](=O)[O-])S(=O)(=O)C(F)(F)F, 12-membered ring, 6.0 h
  ring closure, isolated yield: 76%

## COc1ccc([C@H]2COCC=CC[C@H](CO[Si](CCC(F)(F)C(F)(F)C(F)(F)C(F)(F)C(F)(F)C(F)(F)C(F)(F)C(F)(F)F)(C(C)C)C(C)C)N(S(=O)(=O)c3ccccc3[N+](=O)[O-])CC3=CC=C(CN(S(=O)(=O)c4ccccc4[N+](=O)[O-])C(=O)OC2)S3)c(OC)c1 [21 (15+9, from 20; 2 steps RCM + denosylation; E/Z 65:35)]
From C=CCOC[C@@H](COC(=O)N(Cc1ccc(CN([C@H](CC=C)CO[Si](CCC(F)(F)C(F)(F)C(F)(F)C(F)(F)C(F)(F)C(F)(F)C(F)(F)C(F)(F)F)(C(C)C)C(C)C)S(=O)(=O)c2ccccc2[N+](=O)[O-])s1)S(=O)(=O)c1ccccc1[N+](=O)[O-])c1ccc(OC)cc1OC, 18-membered ring, 24.0 h
  ring closure, isolated yield: 34%

## CC(C)[Si](CCC(F)(F)C(F)(F)C(F)(F)C(F)(F)C(F)(F)C(F)(F)C(F)(F)C(F)(F)F)(OC[C@H]1CC=CCC[C@@H](O[Si](C)(C)C(C)(C)C)[C@H](C)CN(S(=O)(=O)C(F)(F)F)Cc2cccc(c2)CN1S(=O)(=O)c1ccccc1[N+](=O)[O-])C(C)C [29 (14+11; E/Z 15:85)]
From C=CCC[C@@H](O[Si](C)(C)C(C)(C)C)[C@H](C)CN(Cc1cccc(CN([C@H](CC=C)CO[Si](CCC(F)(F)C(F)(F)C(F)(F)C(F)(F)C(F)(F)C(F)(F)C(F)(F)C(F)(F)F)(C(C)C)C(C)C)S(=O)(=O)c2ccccc2[N+](=O)[O-])c1)S(=O)(=O)C(F)(F)F, 16-membered ring, 4.0 h
  ring closure, isolated yield: 78%

## CC(C)[Si](CCC(F)(F)C(F)(F)C(F)(F)C(F)(F)C(F)(F)C(F)(F)C(F)(F)C(F)(F)F)(OC[C@H]1COCC=CCOc2ccccc2COC(=O)N(S(=O)(=O)c2ccccc2[N+](=O)[O-])Cc2cccc(c2)CN1S(=O)(=O)c1ccccc1[N+](=O)[O-])C(C)C [37 (17+10; E/Z 70:30)]
From C=CCOC[C@H](CO[Si](CCC(F)(F)C(F)(F)C(F)(F)C(F)(F)C(F)(F)C(F)(F)C(F)(F)C(F)(F)F)(C(C)C)C(C)C)N(Cc1cccc(CN(C(=O)OCc2ccccc2OCC=C)S(=O)(=O)c2ccccc2[N+](=O)[O-])c1)S(=O)(=O)c1ccccc1[N+](=O)[O-], 20-membered ring, 60.0 h
  ring closure, isolated yield: 78%

## COc1ccc([C@H]2COCC=CC[C@H](CO[Si](CCC(F)(F)C(F)(F)C(F)(F)C(F)(F)C(F)(F)C(F)(F)C(F)(F)C(F)(F)F)(C(C)C)C(C)C)N(S(=O)(=O)c3ccccc3[N+](=O)[O-])Cc3ccccc3CN(S(=O)(=O)c3ccccc3[N+](=O)[O-])C(=O)OC2)c(OC)c1 [24 (13+9; 2 steps RCM + denosylation; E/Z 60:40)]
From C=CCOC[C@@H](COC(=O)N(Cc1ccccc1CN([C@H](CC=C)CO[Si](CCC(F)(F)C(F)(F)C(F)(F)C(F)(F)C(F)(F)C(F)(F)C(F)(F)C(F)(F)F)(C(C)C)C(C)C)S(=O)(=O)c1ccccc1[N+](=O)[O-])S(=O)(=O)c1ccccc1[N+](=O)[O-])c1ccc(OC)cc1OC, 17-membered ring, 24.0 h
  ring closure, isolated yield: 33%

## CC(C)[Si](CCC(F)(F)C(F)(F)C(F)(F)C(F)(F)C(F)(F)C(F)(F)C(F)(F)C(F)(F)F)(OC[C@H]1CC=CCC[C@@H](O[Si](C)(C)C(C)(C)C)[C@H](C)C(=O)N(S(=O)(=O)c2ccccc2[N+](=O)[O-])CC2=CC=C(CN1S(=O)(=O)c1ccccc1[N+](=O)[O-])S2)C(C)C [3 (from 2; E/Z 65:35)]
From C=CCC[C@@H](O[Si](C)(C)C(C)(C)C)[C@H](C)C(=O)N(Cc1ccc(CN([C@H](CC=C)CO[Si](CCC(F)(F)C(F)(F)C(F)(F)C(F)(F)C(F)(F)C(F)(F)C(F)(F)C(F)(F)F)(C(C)C)C(C)C)S(=O)(=O)c2ccccc2[N+](=O)[O-])s1)S(=O)(=O)c1ccccc1[N+](=O)[O-], 16-membered ring, 16.0 h
  ring closure, isolated yield: 40%

## COc1ccc([C@H]2COCC=CCOC[C@H](CO[Si](CCC(F)(F)C(F)(F)C(F)(F)C(F)(F)C(F)(F)C(F)(F)C(F)(F)C(F)(F)F)(C(C)C)C(C)C)N(S(=O)(=O)c3ccccc3[N+](=O)[O-])Cc3cccc(c3)CN(S(=O)(=O)c3ccccc3[N+](=O)[O-])C(=O)OC2)c(OC)c1 [36 (17+9; E/Z 25:75)]
From C=CCOC[C@@H](COC(=O)N(Cc1cccc(CN([C@H](COCC=C)CO[Si](CCC(F)(F)C(F)(F)C(F)(F)C(F)(F)C(F)(F)C(F)(F)C(F)(F)C(F)(F)F)(C(C)C)C(C)C)S(=O)(=O)c2ccccc2[N+](=O)[O-])c1)S(=O)(=O)c1ccccc1[N+](=O)[O-])c1ccc(OC)cc1OC, 20-membered ring, 24.0 h
  ring closure, isolated yield: 76%

## CC(C)[Si](CCC(F)(F)C(F)(F)C(F)(F)C(F)(F)C(F)(F)C(F)(F)C(F)(F)C(F)(F)F)(OC[C@H]1CC=CCC[C@@H](O[Si](C)(C)C(C)(C)C)[C@H](C)CN(S(=O)(=O)C(F)(F)F)Cc2ccccc2CN1S(=O)(=O)c1ccccc1[N+](=O)[O-])C(C)C [23 (13+11, from 22; 2 steps RCM + denosylation; E/Z 30:70)]
From C=CCC[C@@H](O[Si](C)(C)C(C)(C)C)[C@H](C)CN(Cc1ccccc1CN([C@H](CC=C)CO[Si](CCC(F)(F)C(F)(F)C(F)(F)C(F)(F)C(F)(F)C(F)(F)C(F)(F)C(F)(F)F)(C(C)C)C(C)C)S(=O)(=O)c1ccccc1[N+](=O)[O-])S(=O)(=O)C(F)(F)F, 15-membered ring
  ring closure, isolated yield: 84%

## CC(C)[Si](CCC(F)(F)C(F)(F)C(F)(F)C(F)(F)C(F)(F)C(F)(F)C(F)(F)C(F)(F)F)(OC[C@@H]1COCC=CCC[C@@H](O[Si](C)(C)C(C)(C)C)[C@H](C)CN(S(=O)(=O)C(F)(F)F)Cc2ccccc2CN1S(=O)(=O)c1ccccc1[N+](=O)[O-])C(C)C [34 (16+11; E/Z >98:<2)]
From C=CCC[C@@H](O[Si](C)(C)C(C)(C)C)[C@H](C)CN(Cc1ccccc1CN([C@@H](COCC=C)CO[Si](CCC(F)(F)C(F)(F)C(F)(F)C(F)(F)C(F)(F)C(F)(F)C(F)(F)C(F)(F)F)(C(C)C)C(C)C)S(=O)(=O)c1ccccc1[N+](=O)[O-])S(=O)(=O)C(F)(F)F, 17-membered ring, 16.0 h
  ring closure, isolated yield: 61%

## CC(C)[Si](CCC(F)(F)C(F)(F)C(F)(F)C(F)(F)C(F)(F)C(F)(F)C(F)(F)C(F)(F)F)(OC[C@@H]1COCC=CCOc2ccccc2COC(=O)N(S(=O)(=O)c2ccccc2[N+](=O)[O-])Cc2ccccc2CN1S(=O)(=O)c1ccccc1[N+](=O)[O-])C(C)C [33 (16+10; E/Z >98:<2)]
From C=CCOC[C@@H](CO[Si](CCC(F)(F)C(F)(F)C(F)(F)C(F)(F)C(F)(F)C(F)(F)C(F)(F)C(F)(F)F)(C(C)C)C(C)C)N(Cc1ccccc1CN(C(=O)OCc1ccccc1OCC=C)S(=O)(=O)c1ccccc1[N+](=O)[O-])S(=O)(=O)c1ccccc1[N+](=O)[O-], 19-membered ring, 48.0 h
  ring closure, isolated yield: 75%

## CC(C)[Si](CCC(F)(F)C(F)(F)C(F)(F)C(F)(F)C(F)(F)C(F)(F)C(F)(F)C(F)(F)F)(OC[C@H]1CC=CCCN(S(=O)(=O)C(F)(F)F)Cc2cccc(c2)CN1S(=O)(=O)c1ccccc1[N+](=O)[O-])C(C)C (mixture of isomers) [30 (14+12; E/Z mixture)]
From C=CCCN(Cc1cccc(CN([C@H](CC=C)CO[Si](CCC(F)(F)C(F)(F)C(F)(F)C(F)(F)C(F)(F)C(F)(F)C(F)(F)C(F)(F)F)(C(C)C)C(C)C)S(=O)(=O)c2ccccc2[N+](=O)[O-])c1)S(=O)(=O)C(F)(F)F, 13-membered ring, 16.0 h
  ring closure, isolated yield: 47%

## CC(C)[Si](CCC(F)(F)C(F)(F)C(F)(F)C(F)(F)C(F)(F)C(F)(F)C(F)(F)C(F)(F)F)(OC[C@H]1CC=CCOc2ccccc2COC(=O)N(S(=O)(=O)c2ccccc2[N+](=O)[O-])CC2=CC=C(CN1S(=O)(=O)c1ccccc1[N+](=O)[O-])S2)C(C)C [31 (15+10; E/Z >98:<2)]
From C=CCOc1ccccc1COC(=O)N(Cc1ccc(CN([C@H](CC=C)CO[Si](CCC(F)(F)C(F)(F)C(F)(F)C(F)(F)C(F)(F)C(F)(F)C(F)(F)C(F)(F)F)(C(C)C)C(C)C)S(=O)(=O)c2ccccc2[N+](=O)[O-])s1)S(=O)(=O)c1ccccc1[N+](=O)[O-], 18-membered ring, 16.0 h
  ring closure, isolated yield: 60%

## CC(C)[Si](CCC(F)(F)C(F)(F)C(F)(F)C(F)(F)C(F)(F)C(F)(F)C(F)(F)C(F)(F)F)(OC[C@H]1COCC=CCCN(S(=O)(=O)C(F)(F)F)Cc2cccc(c2)CN1S(=O)(=O)c1ccccc1[N+](=O)[O-])C(C)C [38 (17+12; E 55% + Z 15%)]
From C=CCCN(Cc1cccc(CN([C@H](COCC=C)CO[Si](CCC(F)(F)C(F)(F)C(F)(F)C(F)(F)C(F)(F)C(F)(F)C(F)(F)C(F)(F)F)(C(C)C)C(C)C)S(=O)(=O)c2ccccc2[N+](=O)[O-])c1)S(=O)(=O)C(F)(F)F, 15-membered ring, 48.0 h
  ring closure, isolated yield: 70%

## CC(C)[Si](CCC(F)(F)C(F)(F)C(F)(F)C(F)(F)C(F)(F)C(F)(F)C(F)(F)C(F)(F)F)(OC[C@@H]1COCC=CCCN(S(=O)(=O)C(F)(F)F)Cc2ccccc2CN1S(=O)(=O)c1ccccc1[N+](=O)[O-])C(C)C [35 (16+12; E/Z 70:30)]
From C=CCCN(Cc1ccccc1CN([C@@H](COCC=C)CO[Si](CCC(F)(F)C(F)(F)C(F)(F)C(F)(F)C(F)(F)C(F)(F)C(F)(F)C(F)(F)F)(C(C)C)C(C)C)S(=O)(=O)c1ccccc1[N+](=O)[O-])S(=O)(=O)C(F)(F)F, 14-membered ring, 36.0 h
  ring closure, isolated yield: 98%
